Measured values as given in ChEMBL document CHEMBL1201862, “PubChem BioAssay data set” (2004).
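Five compound concentrations were applied to cells in 96-well plates for 48 hours; endpoints were derived by simple linear interpolation of the resulting dose-response curve. At the GI50, growth is halved.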 The source made the active and inactive calls. No stated cut-off is given here; in the data, active = GI50 up to about 1.1 µM and inactive = higher.

How the values were obtained:
Experiment in all cases: NCI anticancer screen, dose series, 48 h
BT-549 = system: BT-549
PC-3 = system: PC-3
HCT-15 = system: HCT-15
SN12C = system: SN12C
UACC-62 = system: UACC-62
NCI-H460 = system: NCI-H460
OVCAR-3 = system: OVCAR-3
Malme-3M = system: Malme-3M
NCI-H522 = system: NCI-H522
LOX IMVI = system: LOX IMVI
A498 = system: A498
A549 = system: A549
RXF 393 = system: RXF 393
NCI/ADR-RES = system: NCI/ADR-RES
SW-620 = system: SW-620
OVCAR-8 = system: OVCAR-8
SR = system: SR
UACC-257 = system: UACC-257
TK-10 = system: TK-10
IGROV-1 = system: IGROV-1
SF-539 = system: SF-539
OVCAR-4 = system: OVCAR-4
EKVX = system: EKVX
HCT-116 = system: HCT-116
CCRF-CEM = system: CCRF-CEM
CAKI-1 = system: CAKI-1
MDA-MB-231 = system: MDA-MB-231
SK-OV-3 = system: SK-OV-3
SF-268 = system: SF-268
786-0 = system: 786-0
K562 = system: K562
SNB-19 = system: SNB-19
HOP-92 = system: HOP-92
HL-60 = system: HL-60
NCI-H23 = system: NCI-H23
DU-145 = system: DU-145
HOP-62 = system: HOP-62
M14 = system: M14
KM12 = system: KM12
U-251 = system: U-251
SK-MEL-2 = system: SK-MEL-2
COLO 205 = system: COLO 205
MCF7 = system: MCF7
OVCAR-5 = system: OVCAR-5
SK-MEL-5 = system: SK-MEL-5
MDA-N = system: MDA-N
MOLT-4 = system: MOLT-4
SF-295 = system: SF-295
SNB-75 = system: SNB-75
Hs-578T = system: Hs-578T
MDA-MB-435 = system: MDA-MB-435
HT-29 = system: HT-29
ACHN = system: ACHN
T47D = system: T47D
UO-31 = system: UO-31
NCI-H226 = system: NCI-H226
HCC 2998 = system: HCC 2998
SK-MEL-28 = system: SK-MEL-28
RPMI-8226 = system: RPMI-8226

N/C(=N/c1ccc(O)cc1)S(=O)(=O)O
GI50 (BT-549): > 100 µM (inactive) | GI50 (PC-3): > 100 µM (inactive) | GI50 (HCT-15): > 100 µM | GI50 (SN12C): > 100 µM (inactive) | GI50 (UACC-62): > 100 µM (inactive) | GI50 (NCI-H460): > 100 µM (inactive) | GI50 (OVCAR-3): > 100 µM (inactive) | GI50 (Malme-3M): > 100 µM (inactive) | GI50 (NCI-H522): > 100 µM (inactive) | GI50 (LOX IMVI): > 100 µM (inactive) | GI50 (A498): > 100 µM (inactive) | GI50 (A549): > 100 µM (inactive) | GI50 (RXF 393): > 100 µM (inactive) | GI50 (NCI/ADR-RES): > 100 µM (inactive) | GI50 (SW-620): > 100 µM (inactive) | GI50 (OVCAR-8): > 100 µM (inactive) | GI50 (SR): > 100 µM (inactive) | GI50 (UACC-257): > 100 µM (inactive) | GI50 (TK-10): > 100 µM (inactive) | GI50 (IGROV-1): > 100 µM (inactive) | GI50 (SF-539): > 100 µM (inactive) | GI50 (OVCAR-4): > 100 µM (inactive) | GI50 (EKVX): > 100 µM (inactive) | GI50 (HCT-116): > 100 µM (inactive) | GI50 (CCRF-CEM): > 100 µM (inactive) | GI50 (CAKI-1): > 100 µM (inactive) | GI50 (MDA-MB-231): > 100 µM (inactive) | GI50 (SK-OV-3): > 100 µM (inactive) | GI50 (SF-268): > 100 µM (inactive) | GI50 (786-0): > 100 µM (inactive) | GI50 (K562): > 100 µM (inactive) | GI50 (SNB-19): > 100 µM (inactive) | GI50 (HOP-92): > 100 µM (inactive) | GI50 (HL-60): > 100 µM (inactive) | GI50 (NCI-H23): > 100 µM (inactive) | GI50 (DU-145): > 100 µM (inactive) | GI50 (HOP-62): > 100 µM (inactive) | GI50 (M14): > 100 µM (inactive) | GI50 (KM12): > 100 µM (inactive) | GI50 (U-251): > 100 µM (inactive) | GI50 (SK-MEL-2): > 100 µM (inactive) | GI50 (COLO 205): > 100 µM (inactive) | GI50 (MCF7): > 100 µM (inactive) | GI50 (OVCAR-5): > 100 µM (inactive) | GI50 (SK-MEL-5): > 100 µM (inactive) | GI50 (MDA-N): > 100 µM (inactive) | GI50 (MOLT-4): > 100 µM (inactive) | GI50 (SF-295): > 100 µM (inactive) | GI50 (SNB-75): > 100 µM (inactive) | GI50 (Hs-578T): > 100 µM (inactive) | GI50 (MDA-MB-435): > 100 µM (inactive) | GI50 (HT-29): > 100 µM (inactive) | GI50 (ACHN): > 100 µM (inactive) | GI50 (T47D): > 100 µM (inactive) | GI50 (UO-31): > 100 µM (inactive) | GI50 (NCI-H226): > 100 µM (inactive) | GI50 (HCC 2998): > 100 µM (inactive)

CCCCCc1nnc(NS(=O)(=O)c2ccc(NC(=O)OCC(C)C)cc2)s1
GI50 (BT-549): 32.1 µM (inactive) | GI50 (PC-3): 36.8 µM (inactive) | GI50 (HCT-15): 36 µM | GI50 (SK-MEL-28): 41.8 µM (inactive) | GI50 (SN12C): 33.9 µM (inactive) | GI50 (RPMI-8226): 19.3 µM (inactive) | GI50 (UACC-62): 29.5 µM (inactive) | GI50 (NCI-H460): 31 µM (inactive) | GI50 (OVCAR-3): 30.3 µM (inactive) | GI50 (Malme-3M): 34.9 µM (inactive) | GI50 (NCI-H522): 24.5 µM (inactive) | GI50 (LOX IMVI): 37.2 µM (inactive) | GI50 (A498): 2.64 µM (inactive) | GI50 (A549): 34.2 µM (inactive) | GI50 (RXF 393): 74.8 µM (inactive) | GI50 (NCI/ADR-RES): 39.4 µM (inactive) | GI50 (SW-620): 40.6 µM (inactive) | GI50 (OVCAR-8): 32.2 µM (inactive) | GI50 (SR): 16.4 µM (inactive) | GI50 (UACC-257): 79.6 µM (inactive) | GI50 (TK-10): 36.9 µM (inactive) | GI50 (IGROV-1): 25.7 µM (inactive) | GI50 (SF-539): 26.8 µM (inactive) | GI50 (OVCAR-4): 26.1 µM (inactive) | GI50 (EKVX): 33.3 µM (inactive) | GI50 (HCT-116): 26.2 µM (inactive) | GI50 (CCRF-CEM): 26.4 µM (inactive) | GI50 (CAKI-1): 36.2 µM (inactive) | GI50 (MDA-MB-231): 36.2 µM (inactive) | GI50 (SK-OV-3): 31.5 µM (inactive) | GI50 (SF-268): 41.9 µM (inactive) | GI50 (786-0): 40.8 µM (inactive) | GI50 (K562): 25.2 µM (inactive) | GI50 (SNB-19): 69.3 µM (inactive) | GI50 (HOP-92): 24.1 µM (inactive) | GI50 (HL-60): 31.2 µM (inactive) | GI50 (NCI-H23): 53.2 µM (inactive) | GI50 (DU-145): 52 µM (inactive) | GI50 (HOP-62): 44.5 µM (inactive) | GI50 (M14): 41.9 µM (inactive) | GI50 (KM12): 36.1 µM (inactive) | GI50 (U-251): 42.9 µM (inactive) | GI50 (SK-MEL-2): 19.1 µM (inactive) | GI50 (COLO 205): 18.5 µM (inactive) | GI50 (MCF7): 37.8 µM (inactive) | GI50 (OVCAR-5): 54.7 µM (inactive) | GI50 (SK-MEL-5): 27.1 µM (inactive) | GI50 (MDA-N): 32.3 µM (inactive) | GI50 (MOLT-4): 20.1 µM (inactive) | GI50 (SF-295): 37.5 µM (inactive) | GI50 (Hs-578T): 51.2 µM (inactive) | GI50 (MDA-MB-435): 33.7 µM (inactive) | GI50 (HT-29): 26.8 µM (inactive) | GI50 (ACHN): 34.7 µM (inactive) | GI50 (T47D): 34.2 µM (inactive) | GI50 (UO-31): 33.4 µM (inactive)
